Read-outs that look alike come from different tables or passages of the source.
Columns and labels:
LTB-4 receptor = target: T1, LTB-4 receptor (Homo sapiens, UniProt Q15722); experiment: Antagonizing action for LTB-4 receptor ([3H]-LTB-4 binding to human neutrophils); conditions: for inhibition at 0.01 µM: 10 nM, read-out: Degree of inhibition (%) 10 nM; for inhibition at 0.01 µM / inhibition at 0.1 µM / inhibition at 1 µM: inhibition of selective [3H]-LTB-4 binding, human neutrophils; for inhibition at 0.1 µM: 100 nM, read-out: Degree of inhibition (%) 100 nM; for inhibition at 1 µM: read-out: Degree of inhibition (%) 1 μM
T1 construct: Final neutrophil was dispersed to 3×10^7 cell/ml in HBSS media and used for measuring the antagonizing action for LTB-4 receptor; endogenous in cells; host or cells: neutrophils from human whole blood
Experimental: Neutrophil was separated from whole blood of human by precipitation using "Dextran T-500", and by the inclined centrifugation with Ficoll/Paque (Pharmacia Co.) Boyum, Scan. J. Clin. Lab. Invest., 21 suppl.
Mixed erythrocyte was removed by hemolysis of hypotonic solution. Final neutrophil was dispersed to 3×10^7 cell/ml in HBSS media and used for measuring the antagonizing action for LTB-4 receptor.
0.5 nM of [^3 H]-LTB-4 (200 Ci/mmol), test sample to measure the antagonizing action for LTB-4 receptor, and cell dispersed in HBSS media was added to 12 mm×75 mm of polyethylene tube (final volume: 200 μl), and left in ice bath for 45 minutes.
To separate [^3 H]-LTB-4 bound to neutrophil and isolated [^3 H]-LTB-4 not bound to neutrophil, the above mixture was filtered through GF/C filter (made by Wattman Co.). Filter paper was washed with pH 7.4 of cold Tris-buffer solution (5 ml) for 3 times, dried, and measured radioactivity. The selective binding of LTB-4 to neutrophil can be detected by the difference between radioactivities without antagonist in case that LTB-4 was totally bound to neutrophil, and that LTB-4 was bound to neutrophil in addition of radioisotope-unlabeled LTB-4 1000 times.

[1] = test system: cells of calvariae of fetal rat (bonelike nodule forming); experiment: Bonelike nodule forming in cultured fetal rat calvaria cells; format: cell-based; conditions: for Area of nodule (mm^2): control 0.12 ± 0.026; for Number of nodule (No.): control 10.04 ± 1.23
Experimental: Approximately 30 of calvariae of fetal rat, removed all the tissue, was dissolved in 5 ml sterilized colagenase (0.1%) and trypsin solution (0.05%) at 37° C. 20 Minutes after dissolving, the released cells were collected, and hereto was added fetal serum to the same amount. This procedure was carried out for 3-6 times in every 20 minutes to collect the isolated cells. Collected cells were separated by centrifugation ([…]) for 5 minutes and it was suspended in α-MEM media, containing 10% (v/v) fetal bovine serum. Collected cells were cultivated in petri dish for 2-3 days, then separated with trypsin, and it were placed in 96 wells to 2.0×10^3 cells/100 μl in each well.
After cultivating the cells for 2-3 days, the media were changed to 5% fetal calf serum, 150 μg/ml ascorbic acid and 5 mM β-glycerophosphate, plus or minus sample (HS-1141). The control was in wells without the sample, and this time was arbitrarily set as […]. Formed nodule was analyzed with image analyzer (Biorad Co., U.S.A.); camcorder (SONY Co.); and microscope (Leitz Co.).

[2] = reported in the literature; cited from earlier work

T1 sequence (Q15722 whole entry): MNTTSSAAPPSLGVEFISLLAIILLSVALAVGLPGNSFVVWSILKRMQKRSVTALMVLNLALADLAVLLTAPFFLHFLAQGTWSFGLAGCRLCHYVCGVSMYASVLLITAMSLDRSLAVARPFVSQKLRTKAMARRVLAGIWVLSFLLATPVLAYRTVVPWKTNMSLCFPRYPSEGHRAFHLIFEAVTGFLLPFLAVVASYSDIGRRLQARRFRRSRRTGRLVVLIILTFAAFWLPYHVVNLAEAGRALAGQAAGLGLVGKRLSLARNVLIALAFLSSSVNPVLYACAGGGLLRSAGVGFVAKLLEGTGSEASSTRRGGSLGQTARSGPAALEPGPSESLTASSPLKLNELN

| SMILES | inhibition at 0.01 µM (LTB-4 receptor) [%] | inhibition at 0.1 µM (LTB-4 receptor) [%] | inhibition at 1 µM (LTB-4 receptor) [%] | effect of antagonizing action for LTB-4 receptor compared with CGS-25019C (LTB-4 receptor; compared with known compound CGS-25019C) | IC50 (LTB-4 receptor; concentration of 50% of antagonizing in binding to receptor, read-out: IC50) [nM] | Area of nodule (mm^2) ([1]; 10-11 M) | Number of nodule (No.) ([1]; 10-11 M) | Area of nodule (mm^2) ([1]; 10^-8 M) | Number of nodule (No.) ([1]; 10^-8 M) | Area of nodule (mm^2) ([1]; 10^-9 M) | Number of nodule (No.) ([1]; 10^-9 M) | Area of nodule (mm^2) ([1]; 10^-10 M) | Number of nodule (No.) ([1]; 10^-10 M) | increase of remodeling of bonelike nodule ([1]; from Table II, versus control) [times] | IC50 (LTB-4 receptor) [nM] | toxicity to stimulate stomach and intestine [2] |
| --- | --- | --- | --- | --- | --- | --- | --- | --- | --- | --- | --- | --- | --- | --- | --- | --- |
| COc1cc(C(=O)N(C(C)C)C(C)C)ccc1OCCCOc1ccc2c(N)noc2c1 [HS-1151, N,N-diisopropyl-4-[3-(3-aminobenzo[d]isoxazol-6-yloxy)propoxy]-3-methoxybenzamide] | < 10 | 37 | 92 | – | – | – | – | – | – | – | – | – | – | – | – | – |
| COc1cc(C(=O)N(C(C)C)C(C)C)ccc1OCCCCOc1ccc2c(N)noc2c1 [HS-1141, N,N-diisopropyl-4-[4-(3-aminobenzo[d]isoxazol-6-yloxy)butoxy]-3-methoxybenzamide] | 64 | 95 | 99 | better | 7 | 0.342 ± 0.065 | 25.67 ± 3.54 | 0.273 ± 0.019 | 22.80 ± 4.71 | 0.379 ± 0.068 | 24.00 ± 4.04 | 0.320 ± 0.082 | 19.40 ± 1.29 | > 2 | – | – |
| COc1cc(C(=O)N(C(C)C)C(C)C)ccc1OCCCCCOc1ccc2c(N)noc2c1 [HS-1132, N,N-diisopropyl-4-[5-(3-aminobenzo[d]isoxazol-6-yloxy)pentoxy]-3-methoxybenzamide] | < 10 | 10 | 90 | – | – | – | – | – | – | – | – | – | – | – | – | – |
| COc1cc(C(=O)N(C(C)C)C(C)C)ccc1OCCCCCOc1ccc(C(=N)N)cc1 [CGS-25019C, reference compound] | 11 | 68 | 97 | – | – | – | – | – | – | – | – | – | – | – | 80 | toxicity to stimulate stomach and intestine |

Source: patent US6150390A, “3-amino-1,2-benzoisoxazole derivatives, process for preparation, and use thereof” (Dong Wha Pharm. Ind. Co., Ltd., priority 1997, dated 2000)
